Assay results published in patent US5369126A, “Nonatetraenoic acid derivative for use in treating acne” (Hoffmann-La Roche Inc., priority 1993, dated 1994).
Read-outs that look alike come from different tables or passages of the source.

Experiments:
[1] = in vivo; cited from earlier work
rhino mouse utricles [2] = assay: Rhino mouse utricle assay, topical dosing; type: in vivo; details: 3 weeks, vs solvent-treated control
Description: (§1) Male and female rhino mice were weighed prior to the start of an experiment. For topical studies, test compounds are dissolved in 100% acetone and 100 μl applied to the dorsa of the mice five times a week, once daily, for three weeks. For oral studies, test compounds were dissolved in 100% propylene glycol and 100 μl given by oral intubation 5 times a week, once daily, for three weeks. Final body weights were recorded at the time of sacrifice, done by CO2 inhalation. A flap of skin from the dorsa was cut out and processed by histological methods to produce a whole mount of the tissue. Utricle size was measured by image analysis using either the Leitz TAS Plus system or the Ultimage system on a modified MACINTOSH computer. Data is given as the % change from solvent-treated control tissue (Tables 3 and 4).

human sebaceous glands = details: Landthaler et al., 1980; cited from earlier work
rhino mouse utricles [3] = assay: Rhino mouse utricle assay, oral dosing; type: in vivo; details: 3 weeks, vs solvent-treated control
Description: as §1

[4] = tested on: hamster ear sebaceous glands; assay: Hamster ear sebaceous gland assay, oral dosing; type: in vivo, Golden Syrian hamster (male); details: 4 weeks
Description: Charles River Golden Syrian male hamsters, weighing between 150 to 160 grams, were housed for one month after receipt before dosing with compounds. […] Fresh solutions were made up weekly.
Hamsters were given 0.2 ml of drug solution via oral intubation. Animals were dosed daily for five days, rested for two days, and dosed again for five days until 20 doses were given. Hamsters were weighed at the beginning and end of the dosing regimen.
Hamsters were sacrificed by CO2 inhalation, and the ears removed for histological evaluation. One ear was fixed with 10% buffered formalin, processed for paraffin embedding, sectioned, and stained with hematoxylin and eosin (H&E). The area of sebaceous glands in cross-sections of hamster ears was examined by image analysis using a Leitz TAS Plus system.
Data is given as the average area of 30-40 sebaceous glands as percent of the control (solvent-treated) sections.

acne = details: Farrell 1980; Hammerstein 1975; Lyons 1982; Weissman 1985; cited from earlier work
[5] = tested on: Syrian hamster ear sebaceous gland; details: Plewig et al., 1981; cited from earlier work
[6] = tested on: human sebaceous cells (sebocytes); assay: Inhibition of human sebocyte proliferation in vitro; type: cell-based; details: read-out: ED50, inhibition of human sebocyte proliferation in vitro
Description: The cells are cultured in Iscove's medium containing 10% fetal calf serum and 4 μg/ml dexamethasone.
Cells are plated in medium without the test compound and then given test compound in fresh medium 24-48 hours after the initial plating. The cultures are given fresh medium containing the test compound, every 48 hours. On the day of harvesting, the cultures are rinsed with 0.03% EDTA in PBS to remove only the 3T3 fibroblasts, followed by incubation in 0.05% trypsin/0.03% EDTA. The cells are suspended, mixed vigorously to prepare a single cell suspension and counted in a hemocytometer.
All test compounds are handled in the following manner. Stock solutions are made up as 10^-2 M solutions in DMSO and stored at -20° C. in the dark. Solutions are never used after one month of storage. During experimental use, the solutions, which have been aliquoted, are brought to room temperature and used by diluting directly into complete medium to the appropriate concentration.

[7] = Toxicity observed in the acne models of Examples 2-4; type: in vivo
Description: The compound of the invention was tested as described in Examples 2-4, below, in several acne models.

[8] = Experiment 1, topical 0.01 % solution in acetone
[9] = Experiment 1, topical 0.1 % solution in acetone
[10] = Experiment 2, topical 0.001 % solution in acetone
[11] = Experiment 2, topical 0.01 % solution in acetone
[12] = Experiment 2, topical 0.1 % solution in acetone
[13] = oral 0.25 mg/kg in propylene glycol
[14] = oral 1.25 mg/kg in propylene glycol
[15] = oral 5 mg/kg in propylene glycol
[16] = Experiment 2, oral 0.5 mg/kg, vs solvent-treated control
[17] = Experiment 2, oral 2.5 mg/kg, vs solvent-treated control
[18] = Experiment 2, oral 5 mg/kg, vs solvent-treated control
[19] = Experiment 2, oral 10 mg/kg, vs solvent-treated control

SMILES | % Decrease, rhino mouse utricle size (rhino mouse utricles [2]; [8]) [%] | % Decrease, rhino mouse utricle size (rhino mouse utricles [2]; [9]) [%] | % Decrease, rhino mouse utricle size (rhino mouse utricles [2]; [10]) [%] | % Decrease, rhino mouse utricle size (rhino mouse utricles [2]; [11]) [%] | % Decrease, rhino mouse utricle size (rhino mouse utricles [2]; [12]) [%] | % Decrease, rhino mouse utricle size (rhino mouse utricles [3]; [13]) [%] | % Decrease, rhino mouse utricle size (rhino mouse utricles [3]; [14]) [%] | % Decrease, rhino mouse utricle size (rhino mouse utricles [3]; [15]) [%] | % Decrease, hamster ear sebaceous gland size [4, 16] [%] | % Decrease, hamster ear sebaceous gland size [4, 17] [%] | % Decrease, hamster ear sebaceous gland size [4, 18] [%] | % Decrease, hamster ear sebaceous gland size [4, 19] [%] | effect on sebum production (acne) | effect on severity of acne (acne) | other results
CC1=C(/C=C/C(C)=C/C=C/C(C)=C\C(=O)O)C(C)(C)CCC1 [13-cis retinoic acid, reference compound] | -44 | -55 | -27 | -58 | -61 | -19 | -39 | -47 | -13 | -24 | -34 | -30 | reduce sebum production | reduce the severity of acne | side effects [1]: deleterious side effects such as hypervitaminosis A; reduction of the size of human sebaceous glands (human sebaceous glands): up to 90%; sensitivity of Syrian hamster ear sebaceous gland [5]: sensitive; IC50 [6]: 50 nM
CCCCCCCCCOc1c(C)cc(C)cc1/C=C/C(C)=C/C=C/C(C)=C/C(=O)O [Compound I, (all-E)-3,7-dimethyl-9-[3,5-dimethyl-2-(nonyloxy)-phenyl]-2,4,6,8-nonatetraenoic acid] | -10 | -42 | -1 | -11 | -30 | -23 | -23 | -28 | -11 | -18 | -24 | -33 | – | – | toxicity at all doses tested [7]: non-toxic at all doses tested; % Decrease, hamster ear sebaceous gland size ([4]; Experiment 1, oral 0.5 mg/kg, vs solvent-treated control): -19%; % Decrease, hamster ear sebaceous gland size ([4]; Experiment 1, oral 1.5 mg/kg, vs solvent-treated control): -27%; % Decrease, hamster ear sebaceous gland size ([4]; Experiment 1, oral 5 mg/kg, vs solvent-treated control): -33%; % Decrease, hamster ear sebaceous gland size ([4]; Experiment 3a, vehicle = Propylene Glycol, oral 0.5 mg/kg): -19%; % Decrease, hamster ear sebaceous gland size ([4]; Experiment 3a, vehicle = Propylene Glycol, oral 1.6 mg/kg): -27%; % Decrease, hamster ear sebaceous gland size ([4]; Experiment 3a, vehicle = Propylene Glycol, oral 6 mg/kg): -33%; % Decrease, hamster ear sebaceous gland size ([4]; Experiment 3b, vehicle = Labrafil, oral 0.6 mg/kg): -18%; % Decrease, hamster ear sebaceous gland size ([4]; Experiment 3b, vehicle = Labrafil, oral 1.6 mg/kg): -26%; % Decrease, hamster ear sebaceous gland size ([4]; Experiment 3b, vehicle = Labrafil, oral 5 mg/kg): -26%; % Decrease, hamster ear sebaceous gland size ([4]; Experiment 3c, vehicle = Tween 80, oral 0.5 mg/kg): -13%; % Decrease, hamster ear sebaceous gland size ([4]; Experiment 3c, vehicle = Tween 80, oral 1.4 mg/kg): -13%; % Decrease, hamster ear sebaceous gland size ([4]; Experiment 3c, vehicle = Tween 80, oral 6 mg/kg): -22%; IC50 ([6]; amount necessary to inhibit proliferation by 50% vs diluent-treated control, tested at 10^-6 to 10^-9 M): 10 nM
CC(=O)O[C@]1(C(C)=O)CC[C@H]2[C@@H]3C=C(Cl)C4=CC(=O)[C@@H]5C[C@@H]5[C@]4(C)[C@H]3CC[C@@]21C [cyproterone acetate] | – | – | – | – | – | – | – | – | – | – | – | – | reduce sebum production | reduce the severity of acne | –
CC(=O)S[C@@H]1CC2=CC(=O)CC[C@]2(C)[C@H]2CC[C@@]3(C)[C@@H](CC[C@@]34CCC(=O)O4)[C@H]12 [spironolactone] | – | – | – | – | – | – | – | – | – | – | – | – | reduce sebum production | reduce the severity of acne | –
